According to patent US12390536B2, “Antibody-drug complex containing toll-like receptor 7/8 dual agonist compound” (ASTELLAS PHARMA INC., priority 2022, dated 2025):
Structures can show the parent of a compound that is named as a salt. Where two headings read alike, the source gives them in different places.

Legend:
human TLR8 = biological target: T1, human TLR8 (Homo sapiens, UniProt Q9NR97); assay: TLR7/8 reporter assay (HEK293, NFκB Nanoluc luciferase reporter), human TLR8; assay type: cell-based; settings: read-out: hTLR8 EC50
T1 construct: expressed in transfected cells
T1 sequence (Q9NR97 27-1041): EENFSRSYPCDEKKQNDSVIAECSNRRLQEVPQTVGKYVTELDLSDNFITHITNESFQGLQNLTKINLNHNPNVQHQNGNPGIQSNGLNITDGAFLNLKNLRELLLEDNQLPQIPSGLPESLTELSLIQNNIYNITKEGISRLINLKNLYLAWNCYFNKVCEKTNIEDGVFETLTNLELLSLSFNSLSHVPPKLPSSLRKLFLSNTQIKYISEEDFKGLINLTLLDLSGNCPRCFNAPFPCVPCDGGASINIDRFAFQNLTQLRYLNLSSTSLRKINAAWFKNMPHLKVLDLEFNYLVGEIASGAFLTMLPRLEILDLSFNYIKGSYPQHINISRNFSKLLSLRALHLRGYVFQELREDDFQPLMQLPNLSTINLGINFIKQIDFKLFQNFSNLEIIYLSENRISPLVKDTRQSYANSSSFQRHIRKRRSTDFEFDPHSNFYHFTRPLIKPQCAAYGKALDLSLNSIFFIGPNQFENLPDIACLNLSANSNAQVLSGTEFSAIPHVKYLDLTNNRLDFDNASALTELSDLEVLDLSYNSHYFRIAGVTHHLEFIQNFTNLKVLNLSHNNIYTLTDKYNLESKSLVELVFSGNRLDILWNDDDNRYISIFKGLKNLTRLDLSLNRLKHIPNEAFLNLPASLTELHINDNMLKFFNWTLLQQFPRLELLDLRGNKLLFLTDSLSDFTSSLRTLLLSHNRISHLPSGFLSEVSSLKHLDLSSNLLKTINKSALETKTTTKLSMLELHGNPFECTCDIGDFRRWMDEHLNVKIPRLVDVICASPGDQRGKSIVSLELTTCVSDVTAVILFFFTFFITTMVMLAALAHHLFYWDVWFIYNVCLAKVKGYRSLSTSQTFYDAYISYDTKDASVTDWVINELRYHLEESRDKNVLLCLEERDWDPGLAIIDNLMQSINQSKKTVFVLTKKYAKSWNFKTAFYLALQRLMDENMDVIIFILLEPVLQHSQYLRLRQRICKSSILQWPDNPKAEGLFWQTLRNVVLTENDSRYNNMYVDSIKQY
Protocol: (§1) HEK293 cells (ATCC, #CRL-1573) were co-transfected with an expression vector having a nucleotide sequence encoding a TLR (human TLR7, human TLR8 or mouse TLR7) protein and a Nanoluc PEST luciferase reporter vector having an NFκB response element sequence (Genbank: JQ513377 bases 33 to 84) integrated therein. Thereafter, the transfected cells were cultured in DMEM (Sigma-Aldrich, #D5796-500 mL) containing Geneticin (Gibco, #10131-027) at a final concentration of 800 μg/mL, Hygromycin B (Invitrogen, #10687010) at a final concentration of 500 μg/mL, penicillin streptomycin (Gibco, #15070-063) at a final concentration of 1% and a 10% fetal bovine serum (FBS) (HyClone, #SH30084.03) to obtain a stable cell line for expression.
(§2) To reporter cells obtained above, DMEM containing 10% FBS was added to prepare a suspension of 1×10^5 cells/mL. The suspension was added to the wells of a 384-well white plate coated with collagen I (hereinafter referred to as “384-well plate”, Corning, #356703) at a rate of 20 μL per well. The cells were cultured in the conditions of 37° C. and 5% CO2, overnight (18 hours) and allowed to adhere to the plate. A test sample was dissolved in DMSO. The solution was diluted by adding DMEM medium containing 10% FBS to the solution such that the concentration becomes 5-fold as high as a final concentration. The diluted DMEM medium was added to the wells of the 384-well plate at a ratio of 5 μL/well. After the medium was further incubated in the conditions of 37° C. and 5% CO2 for 24 hours, the plate was taken out and allowed to stand still at room temperature for 10 minutes. Thereafter, chemiluminescence was measured using Nano-Glo Luciferase Assay System (Promega, #N1120) and EnVision 2104 (PerkinElmer) plate reader. A dose-response curve was prepared for each test sample and the EC50 value was obtained as a concentration at 50% of the maximum signal. In the table, hTLR7 represents human TLR7 and hTLR8 represents human TLR8; and mTLR7 represents mouse TLR7. A data item attached with an asterisk (*) indicates the result of 7 hour-incubation and other data items are the results of 24-hour incubation.

mouse TLR7 = biological target: T2, mouse TLR7 (Mus musculus, UniProt P58681); assay: TLR7/8 reporter assay (HEK293, NFκB Nanoluc luciferase reporter), mouse TLR7; assay type: cell-based; settings: 24-hour incubation; read-out: mTLR7 EC50
T2 construct: expressed in transfected cells
T2 sequence (P58681 27-1050): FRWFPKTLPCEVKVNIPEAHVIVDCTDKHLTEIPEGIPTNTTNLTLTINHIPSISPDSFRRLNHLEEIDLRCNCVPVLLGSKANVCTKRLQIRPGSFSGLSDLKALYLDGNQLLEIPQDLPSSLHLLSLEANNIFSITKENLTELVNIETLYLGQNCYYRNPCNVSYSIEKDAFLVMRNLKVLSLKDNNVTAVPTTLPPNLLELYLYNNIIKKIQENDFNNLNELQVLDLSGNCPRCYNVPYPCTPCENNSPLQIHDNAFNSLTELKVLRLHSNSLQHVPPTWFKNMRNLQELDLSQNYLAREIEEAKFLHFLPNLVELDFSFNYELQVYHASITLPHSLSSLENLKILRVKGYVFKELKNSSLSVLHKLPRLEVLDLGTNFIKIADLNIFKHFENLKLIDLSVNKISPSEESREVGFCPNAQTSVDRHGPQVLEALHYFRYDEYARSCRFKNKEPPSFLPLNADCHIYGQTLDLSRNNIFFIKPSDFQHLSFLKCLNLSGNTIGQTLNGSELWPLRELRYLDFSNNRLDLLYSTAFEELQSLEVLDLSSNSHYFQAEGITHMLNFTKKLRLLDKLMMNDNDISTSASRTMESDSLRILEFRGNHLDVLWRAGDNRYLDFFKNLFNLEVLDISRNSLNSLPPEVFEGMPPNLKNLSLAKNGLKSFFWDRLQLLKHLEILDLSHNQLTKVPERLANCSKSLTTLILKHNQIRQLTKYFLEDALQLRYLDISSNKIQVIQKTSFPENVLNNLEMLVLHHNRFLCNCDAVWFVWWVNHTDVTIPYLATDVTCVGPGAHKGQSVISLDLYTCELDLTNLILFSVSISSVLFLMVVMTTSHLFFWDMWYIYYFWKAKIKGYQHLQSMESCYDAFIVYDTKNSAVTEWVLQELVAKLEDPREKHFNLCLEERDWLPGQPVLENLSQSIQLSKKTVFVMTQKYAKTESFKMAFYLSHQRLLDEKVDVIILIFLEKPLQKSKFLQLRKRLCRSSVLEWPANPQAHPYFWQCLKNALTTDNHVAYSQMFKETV
Protocol: as §1, §2

SMILES	EC50 (human TLR8; 24-hour incubation) [nM]	EC50 (mouse TLR7) [nM]	EC50 (human TLR8; asterisk (*): 7 hour-incubation) [nM]
CCCCCNc1nc(N)nc2ccn(Cc3ccc(CN4CCNC[C@H]4CF)cc3OC)c12 [Ex1, 5-[(4-{[(2S)-2-(fluoromethyl)piperazin-1-yl]methyl}-2-methoxyphenyl)methyl]-N^4-pentyl-5H-pyrrolo[3,2-d]pyrimidine-2,4-diamine]	220	2.92	–
CCCCCSc1nc(N)nc2ccn(Cc3ccc(CN4CCNCC4)cc3OC)c12 [Ex4, 5-({2-methoxy-4-[(piperazin-1-yl)methyl]phenyl}methyl)-4-(pentylsulfanyl)-5H-pyrrolo[3,2-d]pyrimidin-2-amine]	2480	39.9	–
CCCCCNc1nc(N)nc2cc(C)n(Cc3ccc(CN4CCNCC4)cc3OC)c12 [Ex8, 5-({2-methoxy-4-[(piperazin-1-yl)methyl]phenyl}methyl)-6-methyl-N^4-pentyl-5H-pyrrolo[3,2-d]pyrimidine-2,4-diamine hydrochloride]	2110	23.5	–
CCCCCNc1nc(N)nc2ccn(Cc3ccc(CC4CCNCC4)cc3OC)c12 [Ex9, 5-({2-methoxy-4-[(piperidin-4-yl)methyl]phenyl}methyl)-N^4-pentyl-5H-pyrrolo[3,2-d]pyrimidine-2,4-diamine]	1180	4.81	–
COc1cc(CN2CCNC[C@H]2CF)ccc1Cn1ccc2nc(N)nc(SCc3cc(C)on3)c21 [Ex11]	13300	9.2	–
CCCCCNc1nc(N)nc2c(Br)cn(Cc3ccc(CN4CCC[C@H]4CO)cc3OC)c12 [Ex7, {(2S)-1-[(4-{[2-amino-7-bromo-4-(pentylamino)-5H-pyrrolo[3,2-d]pyrimidin-5-yl]methyl}-3-methoxyphenyl)methyl]pyrrolidin-2-yl}methanol]	2000	21.5	–
CCCCCNc1nc(N)nc2ccn(Cc3ccc(CN4CCN[C@@H](CF)C4)cc3OC)c12 [Ex2, 5-[(4-{[(3R)-3-(fluoromethyl)piperazin-1-yl]methyl}-2-methoxyphenyl)methyl]-N^4-pentyl-5H-pyrrolo[3,2-d]pyrimidine-2,4-diamine (trifluoroacetic acid) salt]	1970	5.36	–
CCCCCNc1nc(N)nc2ccn(Cc3ccc(CNCC4CCC4)cc3OC)c12 [Ex12]	–	3.58	685
CCCCCNc1nc(N)nc2c(Cl)cn(Cc3ccc(CN4CC[C@H]4CO)cc3OC)c12 [Ex17]	3740	7.11	–
CCCCCNc1nc(N)nc2c(Cl)cn(Cc3ccc(CN4CCC[C@H]4CO)cc3OC)c12 [Ex6, {(2S)-1-[(4-{[2-amino-7-chloro-4-(pentylamino)-5H-pyrrolo[3,2-d]pyrimidin-5-yl]methyl}-3-methoxyphenyl)methyl]pyrrolidin-2-yl}methanol]	964	10.1	–
CCCCCNc1nc(N)nc2ccn(Cc3ccc(CNC4CC4)cc3OC)c12 [Ex3, 5-({4-[(cyclopropylamino)methyl]-2-methoxyphenyl}methyl)-N^4-pentyl-5H-pyrrolo[3,2-d]pyrimidine-2,4-diamine]	2160	6.17	–
CCCCCNc1nc(N)nc2c(Cl)cn(Cc3ccc(CN4CCC[C@H]4C(C)(C)O)cc3OC)c12 [Ex18]	3630	13.9	–
CCCCCSc1nc(N)nc2ccn(Cc3ccc(CN4CC[C@@H](CN)C4)cc3OC)c12 [Ex15]	4880	111	–
CCCCCSc1nc(N)nc2ccn(Cc3ccc(CN4CCC[C@H]4CO)cc3OC)c12 [Ex5, {(2S)-1-[(4-{[2-amino-4-(pentylsulfanyl)-5H-pyrrolo[3,2-d]pyrimidin-5-yl]methyl}-3-methoxyphenyl)methyl]pyrrolidin-2-yl}methanol]	11700	26.7	–
CCCCCNc1nc(N)nc2ccn(Cc3ccc(CN4CCNC[C@@H]4CF)cc3OC)c12 [Ex10, 5-[(4-{[(2R)-2-(fluoromethyl)piperazin-1-yl]methyl}-2-methoxyphenyl)methyl]-N^4-pentyl-5H-pyrrolo[3,2-d]pyrimidine-2,4-diamine]	716	8.75	–
CCCCCSc1nc(N)nc2ccn(Cc3ccc(CN4CCC(O)CC4)cc3OC)c12 [Ex14]	6590	27.3	–
CCCCCSc1nc(N)nc2ccn(Cc3ccc(CN4CC[C@H]4CO)cc3OC)c12 [Ex13]	6220	17.4	–
